Where a name gives a salt, the structure may show the parent alone.
Experiments:
[1] = Stability of the solid form on storage at different temperatures and humidities, open or closed containers; type: physicochemical; conditions: for Stability, summary in words: various conditions of temperature, humidity and container
Description: The stability of ivabradine adipate in comparison to ivabradine hydrochloride form I was investigated at different temperatures and humidities in open or closed containers for different storage times.

[2] = under physiological conditions; cited from earlier work

COc1cc2c(cc1OC)CC(=O)N(CCCN(C)C[C@H]1Cc3cc(OC)c(OC)cc31)CC2 [Ivabradine HCl form I, Ivabradine HCl]
Stability (solid form after storage) ([1]; 25° C./60% closed, 33 d): unchanged
Stability (solid form after storage) ([1]; 25° C./60% open, 33 d): β + unident.
Stability (solid form after storage) ([1]; 30° C./65% closed, 33 d): unchanged
Stability (solid form after storage) ([1]; 30° C./65% open, 33 d): β
Stability (solid form after storage) ([1]; 40° C./75% closed, 33 d): unchanged
Stability (solid form after storage) ([1]; 40° C./75% open, 33 d): β
Stability, summary in words ([1]; HCl): undergoes phase transition into Ivabradine HCl, form beta

COc1cc2c(cc1OC)CC(=O)N(CCCN(C)C[C@H]1Cc3cc(OC)c(OC)cc31)CC2 [Ivabradine adipate, Ivabradine Adipate]
Stability (solid form after storage) ([1]; 25° C./60% closed, 57 d): unchanged
Stability (solid form after storage) ([1]; 25° C./60% open, 57 d): unchanged
Stability (solid form after storage) ([1]; 30° C./65% closed, 57 d): unchanged
Stability (solid form after storage) ([1]; 30° C./65% open, 57 d): unchanged
Stability (solid form after storage) ([1]; 40° C./75% closed, 57 d): unchanged
Stability (solid form after storage) ([1]; 40° C./75% open, 57 d): unchanged
Stability, summary in words [1]: stable

COc1cc2c(cc1OC)CC(=O)N(CCCN(C)C[C@H]1Cc3cc(OC)c(OC)cc31)CC2 [Ivabradine, (S)-3-{3-[(3,4-dimethoxybicyclo[4.2.0]octa-1,3,5-trien-7-ylmethyl)methylamino]propyl}-7,8-dimethoxy-2,3,4,5-tetrahydro-1H-3-benzazepin-2-one]
water solubility [2]: > 10000 µg/mL

Source: patent US20140357860A1, “SALT OF IVABRADINE WITH ADIPIC ACID” (ratiopharm GmbH, priority 2010, published 2014)
